Measured values as given in patent US10500248B2, “Method for treating cancer” (SUNNYBROOK RESEARCH INSTITUTE, priority 2015, dated 2019).
Where two headings read alike, the source gives them in different places.

How the values were obtained:
PC3 cells [1] = test: Flow cytometry cell cycle analysis (BrdU labeling), PC3; type: cell-based, human
Procedure: To analyze cell cycle profiles, cells were plated at a density of 1×10^6 per 10 cm dish. Asynchronously growing cells were pulse labeled with […] bromodeoxyuridine (BrdU) for 2 h with or without prior treatment of the antioxidants at the end of 24 h. Cells were then harvested, fixed with 70% ethanol, treated with 0.1% HCl and heated for 10 min at 90° C. to expose the labeled DNA. Cells were stained with anti-BrdU-conjugated FITC (Becton-Dickinson) and counterstained with propidium iodide, and then allowed to incubate for 30 mins on ice. Samples were filtered through a nylon mesh. Cell cycle analysis was carried out on the FACS Calibur flow cytometer using the Cell Quest Pro software package (Becton-Dickinson, CA, USA). The experiments were repeated 3 times in triplicates and statistical analysis performed as mentioned below.

PC3 cells [2] = test: Matrigel invasion assay, PC3; type: cell-based, human; conditions: 5 nM docetaxel, desmopressin 1 nM and 1 uM
Procedure: (§1) The migration of cells was measured using transwell insert plates (BD Biosciences, Bedford Mass.) according to the manufacture's protocol. Cells were subjected to 24 h of serum deprivation in DMEM/F12 supplemented with FBS. PC3 (5×10^4) cells were plated onto filters in 8.0-μm transwell insert plates and treated with these compounds, desmopressin (1 nM, 1 μM) and 5 nM docetaxel, in serum-free medium. The lower chamber also contained 10% FBS. Cells were allowed to migrate for 24 h. After the treatment, cells remaining on the top surfaces of the filter were removed using cotton swabs. The migrated cells that are attached to the lower surface of the filter were fixed in 4% formaldehyde at room temperature for 30 min, and then stained with crystal violet for 20 min. The migrated cells from random fields were chosen and counted using the computer-based microscopy imaging system. For the invasion assay, the same procedures were performed as described in the migration assay, except that the cells were plated onto 24-well matrigel-coated transwell plates (BD Biosciences, Bedford Mass.). The experiments were repeated 2 times in duplicates and statistical analysis performed.

PC3 cells [3] = test: MTS cell proliferation assay, PC3; type: cell-based, human; conditions: PC3, 72 h; docetaxel 0-100 nM; desmopressin 1 nM-1 μM; combination desmopressin (1 nM, 1 μM) and 5 nM docetaxel
Procedure: PC3 human prostate carcinoma cells were obtained from the American Type Culture Collection (Rockville, Md., USA). Cells were cultured in DMEM/F12 medium (Invitrogen, ON, Canada) with 10% fetal bovine serum (FBS; Gibco, NY, USA), 100 IU/ml penicillin, 100 μg/ml streptomycin and 0.3 mg/ml 1-glutamine, and maintained at 37° C. in a humidified atmosphere of 5% CO2 in air. Cells were grown to 80% confluence in 10-cm tissue culture plates.
Cell proliferation was determined by MTS assay as previously described.^14 Cells (5×10^3/well) were plated using 96 well plates. After cultivation for 24 h, a range of concentration of desmopressin (100 pM-1 μM) and/or Docetaxel (1 nM-100 nM) were added and culture continued for up to 72 h. Cell viability was assessed by incubation with MTS for 2 hours and resulting absorbance measured at 595 nm using an ELISA plate reader. In the combination studies, varying dose of each agents were tested. The experiments were repeated 3 times in triplicates and statistical analysis performed.

DU145 cells [4] = test: DU145 xenograft model in athymic nude mice; type: in vivo; conditions: day 55 post inoculation
Procedure: 6-week old male athymic nude mice (Charles river, QC, Canada) were used to evaluate the effect of combination therapy on DU145 tumor growth in vivo. […] Following 2 weeks of housing, 1×10^6 DU145 cells per animal in 100 μL matrigel solution (BD Bioscience, CA, USA) were inoculated subcutaneously, according to procedure described by Fridman et al (51). After 14 days following inoculation, body weight and tumor size were measured, and mice were randomly assigned to different treatment groups. Groups included control (sham treatments), DTX (5 mg/kg body weight) intraperitoneally, Desmopressin (2 μg/ml/body weight) intravenously 30 minutes prior to IP injection and 24 hours later or combination therapy (n=4 per group). Each group received treatment once every other week for a total of 3 treatments. Animal weight and tumor measurements were assessed regularly. Tumor size was calculated by length (L) and width (W) measured with caliper according to the following formula: V=(L×W2) ( […] /6).
Two weeks following the last treatment, mice were euthanized; tumors were excised, measured directly with caliper and sent for histological analysis.
Statistics: Tumor volume calculated during the treatment period were compared using repeated measures one-way ANOVA test (SPSS©). Final tumor volume and body weight measurements were compared separately using one-way ANOVA test.

PC3 cells [5] = conditions: for body weight: during each study
Procedure: The mice were housed and maintained in laminar flow cabinets under specific pathogen-free conditions in facilities approved by the University of Toronto Animal Research Ethics Board and in accordance with their regulations and standards by the Canadian Council on Animal Care (CCAC). Cells (1×10^6 PC3 cells with 100 μl martrigel solution (BD Biosciences, CA, USA)) were inoculated subcutaneously (sc) into 6-8 week-old male nude mice (Harlan Sprague Dawley, Inc.). After 14 days, the developing tumors were measured and mice randomly assigned to different treatment groups. Tumor volumes were determined by measurement of tumor length (L) and width (W) with a caliper and calculated according to the formula: V=(L×W^2)(π/6) twice a week. A tumor volume in the range of 100 mm^3 was required for a given mouse to be included. Using the xenograft model, tumor growth was determined for the control and each treatment mice. Mice were randomized into four groups; control (n=15), desmopressin alone (n=15), docetaxel alone (n=10) and desmopressin in combination with docetaxel (n=10). Control animals received only the saline vehicle. Desmopressin from Ferring Pharmaceuticals (Ferring Inc, CA, USA) was administrated in 2 doses, 0 h and 24 h. Mice received desmopressin intravenously in the saline at a final dose of 2 μg/ml/body weight (50 ng/0.3 ml saline dose). Mice were administrated docetaxel at a dose of 5 mg/kg intravenously as 3 weekly cycles. Desmopressin was administrated in 2 doses, 30 min prior to and 24 h after the administration of docetaxel. The animals that were administrated docetaxel or desmopressin in combination with docetaxel were sacrificed 35 days after cell inoculation. Control and desmopressin mice were monitored until tumor volume was approximately 1500 mm3 or day 49, whichever earlier, in order to evaluate antitumor effect of desmopressin in vivo study.
All experiments were performed in triplicates. The date represented mean±the standard error of the mean. Statistical analysis was done by Student's t test at a significance level of P<0.05. Analyses of the in vivo results were performed using either Student's t-testing or repeated measures one-way ANOVA techniques.

DU145 cells [6] = test: Wound healing assay, DU145; type: cell-based; conditions: for effect on migration (wound closure) compared to control: 10 nM DTX alone, Desmopressin alone
Procedure: The motility inhibitory potential of desmopressin alone and/or in combination with docetaxel was accessed by wound healing assay according to previously described protocol^49, 50. DU145 cell were plated on 24-well plates at a concentration of 50,000 cells per well and were allowed to grow until they reached 90-100% confluence. After incubating the cells with 1 mg/L Mitomycin C (Sigma©) for 1 hour, a vertical scratch across each well was created; floating cells removed and cell media or media with treatment solutions were added. Images were obtained at zero-time point and after 24 hours of treatment. A computer-based microscopy imaging system with X200 magnification (Axiovision©) was used to measure wound healing of each well. Each experiment was carried out in duplicates and repeated three times

[7] = tested on: cyclin A, cyclin B, CDK2, CDK4, p21(waf1/cip1), p27(kip1), Bax, Bcl-2, PARP, Caspase 3 in PC3 cells; test: Western blot of cell cycle and apoptosis proteins, PC3; type: cell-based, human
Procedure: (§2) Protein lysates from the desmopressin monotherapy dose response study (100 pM-1 uM), desmopressin monotherapy time point study (1 uM, 0-48 h) and combination study and concentrated media employed for Western blot analysis, were prepared as previously described.^14 The proteins were subjected to 10-12% SDS-PAGE and electrophoretically transferred onto a PVDF membrane at 100V/300 mA overnight using a semidry transfer apparatus (Bio-Rad Laboratories, Hercules, Calif.). After activation in methanol (100%), blots were incubated for 60 mins at room temperature in TBST containing 5% skimmed milk. After washing, the membranes were incubated with primary antibodies against Bax, bcl-2, p21 (waf1/cip1), p27 (kip1), cdk2, cdk4, uPA, uPAR, MMP-2 and MMP-9 (1:100-200, Santacruz Biotechnology, Santacruz, Calif., USA). After incubation with respective primary antibody, the membrane was washed with TBST 3 times for 5 min, then incubated with appropriate secondary antibody for 1 h at room temperature and washed with TBST 3 times for 5 min. Protein detection was performed with enhanced chemiluminescence Western blotting regents (Amersham Pharmacia Biotech, Buckinghamshire, UK).

[8] = tested on: pro-uPA, active uPA, uPAR, MMP-2 and MMP-9 in PC3 cells; test: Western blot of uPA-MMP pathway, PC3; type: cell-based, human
Procedure: as §2

PC3 cells [9] = test: Transwell cell migration assay, PC3; type: cell-based, human; conditions: PC3, 24 h; desmopressin 1 nM and 1 μM; 5 nM docetaxel in combination
Procedure: as §1

[10] = dose response study 100 pM-1 uM

## CC(=O)O[C@@]12CO[C@@H]1C[C@H](O)[C@@]1(C)C(=O)[C@H](O)C3=C(C)[C@@H](OC(=O)[C@H](O)[C@@H](NC(=O)OC(C)(C)C)c4ccccc4)C[C@@](O)([C@@H](OC(=O)c4ccccc4)[C@H]21)C3(C)C [docetaxel]
PC3 cells [1]; 5 nM docetaxel, alone or with 1 nM/1 μM desmopressin
  proportion of cells in G2 phase: significant increase in the proportion of cells in G2 phase
PC3 cells [2]
  cell invasion, matrigel invasion assay: significantly inhibition of cell invasion
PC3 cells [3]
  cell proliferation / cell viability (MTS), relative to untreated control cells: decreased cell viability in a dose dependent manner
DU145 cells [4]
  average tumor size, final direct measurement of excised tumors: 1330±550 mm3
PC3 cells [5]; PC3 xenograft, nude mice
  body weight: consistently maintained their body weight
PC3 cells [5]; mouse, in vivo, iv
  tolerability of treatment: well tolerated
DU145 cells [6]; DU145, 24 hours
  effect on migration (wound closure) compared to control: migration inhibitory effect
DU145 cells [6]; DU145, 24 hours, DTX 10 nM, alone or combined with 1 μm Desmopressin
  in vitro wound closure: 48.9%
DU145 cells [6]; DU145, DTX concentration of 100 μM
  cell kill in wound healing assay: significant cell kill

## NC(=O)CC[C@@H]1NC(=O)[C@H](Cc2ccccc2)NC(=O)[C@H](Cc2ccc(O)cc2)NC(=O)CCSSC[C@@H](C(=O)N2CCC[C@H]2C(=O)N[C@H](CCCN=C(N)N)C(=O)NCC(N)=O)NC(=O)[C@H](CC(N)=O)NC1=O [desmopressin, 1-desamino-8-D-arginine vasopressin]
[7]
  expression of (total) Caspase 3: did not reduce the expression
  expression of PARP: did not reduce the expression
  expression of bcl-2: did not reduce the expression
[8]; [10]
  expression of MMP-2: reduced in a dose dependent manner
  expression of MMP-9: reduced in a dose dependent manner
  expression of active uPA: reduced in a dose dependent manner
  expression of precursor pro-uPA: reduced in a dose dependent manner
  expression of uPAR: unaltered
[8]; time point study, 1 μM, 0-48 h
  expression of MMP-2: reduced in a time dependent manner
  expression of MMP-9: reduced in a time dependent manner
  expression of uPA: reduced in a time dependent manner
  expression of uPAR: not altered
PC3 cells [1]; monotherapy
  cell cycle distribution: did not alter cell cycle distribution
PC3 cells [2]
  cell invasion, matrigel invasion assay: significantly inhibition of cell invasion
PC3 cells [3]
  cell proliferation / cell viability (MTS), relative to untreated control cells: significantly reduced cell proliferation
DU145 cells [4]
  average tumor size, final direct measurement of excised tumors: 1597±681 mm3
PC3 cells [5]; PC3 xenograft, nude mice, day 35 post tumor inoculation, desmopressin 2 μg/ml/body weight i.v.
  mean tumor volume: 642 mm3
PC3 cells [5]; PC3 xenograft, nude mice
  body weight: consistently maintained their body weight
PC3 cells [5]; PC3 xenograft, nude mice, intravenous injection
  tolerability of treatment: well tolerated
PC3 cells [5]; PC3 xenograft, nude mice, docetaxel 5 mg/kg i.v., desmopressin 2 μg/ml/body weight i.v.
  tumor growth / tumor size versus control (and docetaxel alone): significantly slower rate of tumor development
DU145 cells [6]; DU145, 24 hours
  effect on migration (wound closure) compared to control: no statistical significant effect
PC3 cells [9]
  cell migration, transwell plates: significantly inhibited cell migration
